ChEMBL document CHEMBL3627709, “Discovery of a Novel, Potent Spirocyclic Series of γ-Secretase Inhibitors” (J Med Chem, 2015)
Active and inactive are the calls of the source. The calls are words filed in the database; no cut-off is given here.

Experiments:
[1] = biological target: Gamma-secretase; test: Inhibition of gamma-secretase in HEK293 cell membranes using SPC99-Lon as substrate assessed as formation of amyloid beta 40 after 1 hr by electrochemiluminescence-based immunoassay; parameters: species or system Homo sapiens
[2] = biological target: Voltage-gated inwardly rectifying potassium channel KCNH2 (Homo sapiens, UniProt Q12809); test: Inhibition of human ERG
Chain of Voltage-gated inwardly rectifying potassium channel KCNH2 (Q12809 whole entry): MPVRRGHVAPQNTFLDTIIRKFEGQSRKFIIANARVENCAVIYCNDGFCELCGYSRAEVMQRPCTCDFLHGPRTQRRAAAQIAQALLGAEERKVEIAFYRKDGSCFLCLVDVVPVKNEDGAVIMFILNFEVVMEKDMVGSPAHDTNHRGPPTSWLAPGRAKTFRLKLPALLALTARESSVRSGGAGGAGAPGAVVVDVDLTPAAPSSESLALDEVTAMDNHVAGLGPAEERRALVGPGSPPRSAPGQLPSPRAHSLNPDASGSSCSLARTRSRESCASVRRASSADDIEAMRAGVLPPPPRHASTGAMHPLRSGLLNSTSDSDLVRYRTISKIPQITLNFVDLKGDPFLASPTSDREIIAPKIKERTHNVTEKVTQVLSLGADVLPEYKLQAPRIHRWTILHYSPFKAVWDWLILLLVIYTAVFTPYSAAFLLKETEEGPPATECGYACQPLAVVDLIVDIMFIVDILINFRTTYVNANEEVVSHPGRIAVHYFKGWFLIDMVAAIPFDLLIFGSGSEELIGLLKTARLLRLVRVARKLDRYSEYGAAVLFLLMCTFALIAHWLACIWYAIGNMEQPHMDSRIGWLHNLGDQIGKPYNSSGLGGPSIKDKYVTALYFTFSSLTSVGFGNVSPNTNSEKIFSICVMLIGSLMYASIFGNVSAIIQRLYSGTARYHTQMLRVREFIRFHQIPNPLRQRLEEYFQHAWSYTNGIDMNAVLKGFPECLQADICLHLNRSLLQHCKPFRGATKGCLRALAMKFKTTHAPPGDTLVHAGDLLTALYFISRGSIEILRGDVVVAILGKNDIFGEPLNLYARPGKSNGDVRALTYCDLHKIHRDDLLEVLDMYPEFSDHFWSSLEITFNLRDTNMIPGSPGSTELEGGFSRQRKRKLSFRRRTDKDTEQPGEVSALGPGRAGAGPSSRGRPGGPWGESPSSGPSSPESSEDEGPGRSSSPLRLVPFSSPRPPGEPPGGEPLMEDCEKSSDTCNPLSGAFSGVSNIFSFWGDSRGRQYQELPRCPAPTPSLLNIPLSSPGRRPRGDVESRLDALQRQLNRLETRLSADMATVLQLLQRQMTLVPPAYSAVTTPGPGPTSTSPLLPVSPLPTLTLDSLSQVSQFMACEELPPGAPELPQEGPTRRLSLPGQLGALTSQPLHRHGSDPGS

[3] = biological target: Gamma-secretase; test: Inhibition of gamma-secretase in HEK293 cells using human APP Swedish/London double mutant as substrate assessed as formation of amyloid beta 42 after 5 to 6 hrs by sandwich immunoassay; assay type: cell-based
[4] = biological target: Gamma-secretase; test: Inhibition of gamma-secretase in HEK293 cells using human APP Swedish/London double mutant as substrate assessed as formation of amyloid beta 40 after 5 to 6 hrs by sandwich immunoassay; assay type: cell-based
[5] = biological target: T1, Cytochrome P450 2D6 (Homo sapiens, UniProt P10635); test: Inhibition of CYP2D6 (unknown origin) preincubated with protein for 30 mins followed by substrate addition; assay type: ADME
T1 sequence (P10635 whole entry): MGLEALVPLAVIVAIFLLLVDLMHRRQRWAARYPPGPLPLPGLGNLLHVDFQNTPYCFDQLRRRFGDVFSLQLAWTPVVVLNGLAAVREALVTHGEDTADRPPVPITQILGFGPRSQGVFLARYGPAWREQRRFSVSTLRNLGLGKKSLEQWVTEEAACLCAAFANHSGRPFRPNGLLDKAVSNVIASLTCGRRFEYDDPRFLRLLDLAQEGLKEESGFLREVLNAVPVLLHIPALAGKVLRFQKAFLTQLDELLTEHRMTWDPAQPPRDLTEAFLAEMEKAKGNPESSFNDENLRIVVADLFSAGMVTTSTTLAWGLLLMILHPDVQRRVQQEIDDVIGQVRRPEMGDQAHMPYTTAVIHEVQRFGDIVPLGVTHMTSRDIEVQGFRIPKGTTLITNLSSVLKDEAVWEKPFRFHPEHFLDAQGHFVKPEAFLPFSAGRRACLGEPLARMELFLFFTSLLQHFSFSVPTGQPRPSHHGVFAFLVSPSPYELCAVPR

[6] = biological target: T2, Cytochrome P450 3A4 (Homo sapiens, UniProt P08684); test: Inhibition of CYP3A4 (unknown origin) preincubated with protein for 30 mins followed by substrate addition; assay type: ADME
T2 sequence (P08684 whole entry): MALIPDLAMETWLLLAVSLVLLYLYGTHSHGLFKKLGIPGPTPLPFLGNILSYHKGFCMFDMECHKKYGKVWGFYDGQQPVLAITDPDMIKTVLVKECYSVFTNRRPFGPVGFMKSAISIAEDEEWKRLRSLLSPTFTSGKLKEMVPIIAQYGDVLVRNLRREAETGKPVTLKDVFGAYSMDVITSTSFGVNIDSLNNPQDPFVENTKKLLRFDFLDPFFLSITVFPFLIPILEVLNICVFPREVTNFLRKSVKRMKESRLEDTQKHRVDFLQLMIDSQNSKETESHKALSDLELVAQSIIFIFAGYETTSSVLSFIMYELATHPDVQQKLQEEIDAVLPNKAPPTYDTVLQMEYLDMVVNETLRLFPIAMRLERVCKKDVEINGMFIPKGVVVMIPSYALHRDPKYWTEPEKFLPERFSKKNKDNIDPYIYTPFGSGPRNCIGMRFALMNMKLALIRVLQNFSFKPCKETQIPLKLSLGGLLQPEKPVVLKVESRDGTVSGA

[7] = biological target: T2, Cytochrome P450 3A4; test: Inhibition of CYP3A4 (unknown origin) co-incubated with substrate and protein; assay type: ADME
[8] = biological target: T3, Cytochrome P450 2C9 (Homo sapiens, UniProt P11712); test: Inhibition of CYP2C9 (unknown origin) co-incubated with substrate and protein; assay type: ADME
T3 sequence (P11712 whole entry): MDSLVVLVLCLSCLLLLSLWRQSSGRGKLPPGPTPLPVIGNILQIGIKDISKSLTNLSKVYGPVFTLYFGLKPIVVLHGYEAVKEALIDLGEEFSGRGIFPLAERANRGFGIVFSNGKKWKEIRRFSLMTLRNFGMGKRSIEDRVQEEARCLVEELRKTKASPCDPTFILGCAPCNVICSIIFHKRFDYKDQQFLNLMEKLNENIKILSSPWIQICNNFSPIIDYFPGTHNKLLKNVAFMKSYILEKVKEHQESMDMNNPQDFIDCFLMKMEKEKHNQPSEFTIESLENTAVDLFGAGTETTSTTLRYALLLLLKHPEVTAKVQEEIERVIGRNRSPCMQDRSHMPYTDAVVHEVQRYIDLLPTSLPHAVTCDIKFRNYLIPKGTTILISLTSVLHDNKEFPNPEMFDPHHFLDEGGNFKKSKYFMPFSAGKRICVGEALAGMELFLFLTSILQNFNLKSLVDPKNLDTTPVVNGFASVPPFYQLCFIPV

[9] = biological target: T1, Cytochrome P450 2D6; test: Inhibition of CYP2D6 (unknown origin) co-incubated with substrate and protein; assay type: ADME
[10] = biological target: T3, Cytochrome P450 2C9; test: Inhibition of CYP2C9 (unknown origin) preincubated with protein for 30 mins followed by substrate addition; assay type: ADME
[11] = system: Rattus norvegicus; test: Antialzheimer activity in Sprague-Dawley rat assessed as reduction of total amylod beta level at 10 mg/kg, po after 3 hrs by immunoassay relative to vehicle-treated control; assay type: functional, organism-based
[12] = species on record: Homo sapiens; test: Selectivity ratio of IC50 for human presenilin-2 to IC50 for human presenilin-1
[13] = system: Rattus norvegicus; test: (§1) AUC (0 to 6 hrs) in Sprague-Dawley rat at 10 mg/kg, po by LC-MS/MS analysis; assay type: ADME, organism-based; parameters: time < 6 hr, dose 10 mg/kg, route oral; conditions: in vivo, 6 h, BLD = below limit of detection
[14] = Ratio of drug level in brain to plasma in Sprague-Dawley rat at 10 mg/kg, po; assay type: ADME, organism-based; conditions: brain and plasma, read-out: BPR
[15] = as §1; assay type: ADME, organism-based; parameters: time < 6 hr, dose 10 mg/kg, route oral; conditions: Sprague-Dawley, in vivo
[16] = system: Rattus norvegicus; test: Antialzheimer activity in Sprague-Dawley rat assessed as reduction of total amylod beta level in plasma at 10 mg/kg, po after 3 hrs by immunoassay relative to vehicle-treated control; assay type: functional; parameters: scale not given: the % may be the effect or the level left
[17] = system: Rattus norvegicus; test: Antialzheimer activity in Sprague-Dawley rat assessed as reduction of total amylod beta level in cerebrospinal fluid at 10 mg/kg, po after 3 hrs by immunoassay relative to vehicle-treated control; assay type: functional; parameters: scale not given: the % may be the effect or the level left

Question: What does the source list for `CC1(C)OCC2(CCC[C@@]3(S(=O)(=O)c4ccc(Cl)cc4)c4c(F)ccc(F)c4OC[C@@H]23)CO1`?
Answer: IC50 [1]: 66.6 nM; inhibition (INH) [2]: Not Active; IC50 [3]: 12 nM; IC50 [4]: 33 nM

Question: Which IC50 [1] does the source give for `O=S(=O)(N1CC[C@]2(CCC[C@@]3(S(=O)(=O)c4ccc(Cl)cc4)c4c(F)ccc(F)c4OC[C@@H]23)C1)C(F)(F)F` here?
Answer: 23.3 nM

Question: What about the “inhibition (INH)” value [2] of the same compound?
Answer: Not Active

Question: And the IC50 [5]?
Answer: > 30000 nM

Question: And the IC50 [6]?
Answer: > 20000 nM

Question: What about the IC50 [7] of the same compound?
Answer: > 30000 nM

Question: And the IC50 [8]?
Answer: > 30000 nM

Question: What about the IC50 [3] of the same compound?
Answer: 8 nM

Question: What about the IC50 [9] of the same compound?
Answer: > 30000 nM

Question: And the IC50 [4]?
Answer: 13 nM

Question: What about the IC50 [10] of the same compound?
Answer: > 30000 nM

Question: What does the source list for `O=S(=O)(c1ccc(Cl)cc1)[C@@]12CCCC(CO)(CO)[C@@H]1COc1c(F)ccc(F)c12`?
Answer: IC50 [1]: 251 nM; inhibition (INH) [2]: Not Active; IC50 [5]: > 30000 nM; IC50 [6]: 11500 nM; IC50 [7]: 11000 nM; IC50 [8]: 23400 nM; IC50 [9]: > 30000 nM; IC50 [10]: 21100 nM

Question: For `O=S(=O)(N[C@@H]1CC[C@@]2(S(=O)(=O)c3ccc(Cl)cc3)c3c(F)ccc(F)c3OC[C@H]2C1)C(F)(F)F`, which IC50 [5] is on record?
Answer: > 30000 nM

Question: What about the IC50 [6] of the same compound?
Answer: 3500 nM

Question: And the IC50 [7]?
Answer: 9600 nM

Question: And the IC50 [8]?
Answer: < 300 nM

Question: And the IC50 [9]?
Answer: > 30000 nM

Question: What about the IC50 [10] of the same compound?
Answer: < 300 nM

Question: What does the source list for `O=S(=O)(c1ccc(Cl)cc1)C1(c2cc(F)ccc2F)CCCCC1`?
Answer: IC50 [1]: 14.1 nM; Activity [11]: inactive; IC50 [3]: 27 nM; IC50 [4]: 41 nM; Ratio IC50 [12]: 1; AUC [13]: BLD

Question: What does the source list for `O=S(=O)(c1ccc(Cl)cc1)[C@@]12CCC[C@]3(CCOC3)[C@@H]1COc1c(F)ccc(F)c12` (stereo in doubt; (+)-14b)?
Answer: IC50 [1]: 142 nM; IC50 [3]: 63 nM; IC50 [4]: 104 nM

Question: What does the source list for `O=C1OCC[C@]12CCC[C@@]1(S(=O)(=O)c3ccc(Cl)cc3)c3c(F)ccc(F)c3OC[C@@H]21`?
Answer: IC50 [1]: 228 nM; inhibition (INH) [2]: Not Active; IC50 [5]: > 30000 nM; IC50 [6]: > 30000 nM; IC50 [7]: > 30000 nM; IC50 [8]: > 30000 nM; IC50 [9]: > 30000 nM; IC50 [10]: > 30000 nM

Question: Which “inhibition (INH)” value [2] does the source give for `O=S1(=O)CCC2(CCC[C@@]3(S(=O)(=O)c4ccc(Cl)cc4)c4c(F)ccc(F)c4OC[C@@H]23)CC1` here?
Answer: Not Active

Question: And the IC50 [5]?
Answer: > 20000 nM

Question: What about the Activity [11] of the same compound?
Answer: inactive

Question: And the IC50 [6]?
Answer: > 20000 nM

Question: And the IC50 [7]?
Answer: > 20000 nM

Question: And the IC50 [8]?
Answer: > 20000 nM

Question: And the IC50 [9]?
Answer: > 20000 nM

Question: What about the Kp [14] of the same compound?
Answer: 0.2

Question: What about the IC50 [10] of the same compound?
Answer: > 20000 nM

Question: And the AUC(0-t) at 6 h [15]?
Answer: 3.31 µM·h

Question: Which results are given for `O=S(=O)(c1ccc(Cl)cc1)[C@@]12CCCC3(CCSCC3)[C@@H]1COc1c(F)ccc(F)c12`?
Answer: IC50 [1]: 26.4 nM; inhibition (INH) [2]: Not Active; Activity [11]: inactive; IC50 [3]: 5 nM; IC50 [4]: 17 nM; AUC [13]: BLD

Question: Which results are given for `O=S(=O)(c1ccc(Cl)cc1)[C@@]12CCC[C@]3(CCOC3)[C@@H]1COc1c(F)ccc(F)c12` (stereo in doubt; (-)-14b)?
Answer: IC50 [1]: 13.9 nM; inhibition (INH) [2]: Not Active; Activity [16]: 29%; IC50 [5]: > 20000 nM; IC50 [6]: > 20000 nM; IC50 [7]: > 20000 nM; IC50 [8]: > 20000 nM; Activity [17]: 10%; IC50 [3]: 3 nM; IC50 [9]: > 20000 nM; IC50 [4]: 6 nM; IC50 [10]: > 20000 nM

Question: With `O=S(=O)(N[C@H]1CC[C@@](c2cc(F)ccc2F)(S(=O)(=O)c2ccc(Cl)cc2)CC1)C(F)(F)F` as the compound, how does the Activity [16] read?
Answer: 71%

Question: What about the IC50 [5] of the same compound?
Answer: > 30000 nM

Question: And the IC50 [8]?
Answer: < 300 nM

Question: What about the IC50 [9] of the same compound?
Answer: > 30000 nM

Question: And the Kp [14]?
Answer: 0.2

Question: What about the IC50 [10] of the same compound?
Answer: < 300 nM

Question: And the AUC(0-t) at 6 h [15]?
Answer: 2.35 µM·h

Question: Which results are given for `O=S(=O)(c1ccc(Cl)cc1)[C@@]12CCCC3(COC3)[C@@H]1COc1c(F)ccc(F)c12`?
Answer: IC50 [1]: 10.1 nM; inhibition (INH) [2]: Not Active; IC50 [3]: 7 nM; IC50 [4]: 13 nM; AUC [13]: BLD

Question: Which results are given for `O=S(=O)(NC[C@@H]1OCC[C@@]2(S(=O)(=O)c3ccc(Cl)cc3)c3c(F)ccc(F)c3OC[C@@H]12)C(F)(F)F`?
Answer: IC50 [5]: 30000 nM; IC50 [6]: 21400 nM; IC50 [7]: > 30000 nM; IC50 [8]: 2500 nM; IC50 [9]: 17900 nM; IC50 [10]: 4900 nM
